Source: PubChem BioAssay (NCI)
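How tested: cells in 96-well plates exposed to compound for 48 hours at five concentrations. GI50 marks 50% less growth. At the TGI there is no net growth.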

Assays:
Assay in all cases: inhibition of tumour cell growth, NCI panel, 48 h
[1] = test system: 786-0 renal
[2] = test system: A498 renal
[3] = test system: A549 NSCLC
[4] = test system: ACHN renal
[5] = test system: BT-549 breast
[6] = test system: CAKI-1 renal
[7] = test system: CCRF-CEM leukemia
[8] = test system: COLO 205 colon
[9] = test system: HCT-116 colon
[10] = test system: HCT-15 colon
[11] = test system: HL-60(TB) leukemia
[12] = test system: HOP-62 NSCLC
[13] = test system: HOP-92 NSCLC
[14] = test system: HS 578T breast
[15] = test system: HT29 colon
[16] = test system: IGROV1 ovarian
[17] = test system: K-562 leukemia
[18] = test system: LOX IMVI melanoma
[19] = test system: M14 melanoma
[20] = test system: MALME-3M melanoma
[21] = test system: MCF7 breast
[22] = test system: MDA-MB-231 breast
[23] = test system: MDA-MB-435
[24] = test system: MOLT-4 leukemia
[25] = test system: NCI-H226 lung
[26] = test system: NCI-H23 lung
[27] = test system: NCI-H460 lung
[28] = test system: NCI-H522 lung
[29] = test system: NCI/ADR-RES ovarian
[30] = test system: OVCAR-4 ovarian
[31] = test system: OVCAR-5 ovarian
[32] = test system: OVCAR-8 ovarian
[33] = test system: PC-3 prostate
[34] = test system: RPMI-8226 leukemia
[35] = test system: RXF 393 renal
[36] = test system: SF-295 CNS
[37] = test system: SF-539 CNS
[38] = test system: SK-MEL-2 melanoma
[39] = test system: SK-MEL-28 melanoma
[40] = test system: SK-MEL-5 melanoma
[41] = test system: SK-OV-3 ovarian
[42] = test system: SN12C renal
[43] = test system: SNB-19 CNS
[44] = test system: SNB-75 CNS
[45] = test system: SW-620 colon
[46] = test system: T-47D breast
[47] = test system: TK-10 renal
[48] = test system: U251 CNS
[49] = test system: UACC-257 melanoma
[50] = test system: UACC-62 melanoma
[51] = test system: UO-31 renal

CCN(CC)CCOc1ccc(-c2nc3cc(Cl)ccc3s2)cc1
GI50 [1]: 1.68 µM
TGI [1]: 3.14 µM
GI50 [2]: 1.66 µM
TGI [2]: 3.83 µM
GI50 [3]: 1.75 µM
TGI [3]: 3.47 µM
GI50 [4]: 1.58 µM
TGI [4]: 2.94 µM
GI50 [5]: 1.83 µM
TGI [5]: 5.73 µM
GI50 [6]: 1.47 µM
TGI [6]: 2.84 µM
GI50 [7]: 0.565 µM
TGI [7]: 3.14 µM
GI50 [8]: 1.45 µM
TGI [8]: 2.76 µM
GI50 [9]: 1.25 µM
TGI [9]: 2.5 µM
GI50 [10]: 1.19 µM
TGI [10]: 2.42 µM
GI50 [11]: 1.56 µM
TGI [11]: 5.12 µM
GI50 [12]: 1.74 µM
TGI [12]: 3.25 µM
GI50 [13]: 1.22 µM
TGI [13]: 4.2 µM
GI50 [14]: 1.62 µM
TGI [14]: 3.72 µM
GI50 [15]: 0.6 µM
TGI [15]: 1.84 µM
GI50 [16]: 1.85 µM
TGI [16]: 3.61 µM
GI50 [17]: 1.26 µM
TGI [17]: > 100 µM
GI50 [18]: 1.39 µM
TGI [18]: 2.68 µM
GI50 [19]: 1.73 µM
TGI [19]: 3.21 µM
GI50 [20]: 1.45 µM
TGI [20]: 2.8 µM
GI50 [21]: 1.45 µM
TGI [21]: 2.83 µM
GI50 [22]: 1.47 µM
TGI [22]: 2.92 µM
GI50 [23]: 1.65 µM
TGI [23]: 3.18 µM
GI50 [24]: 2.24 µM
TGI [24]: 10.9 µM
GI50 [25]: 2.02 µM
TGI [25]: 4.43 µM
GI50 [26]: 1.64 µM
TGI [26]: 3.32 µM
GI50 [27]: 1.59 µM
TGI [27]: 2.93 µM
GI50 [28]: 1.8 µM
TGI [28]: 3.53 µM
GI50 [29]: 1.97 µM
TGI [29]: 3.87 µM
GI50 [30]: 1.65 µM
TGI [30]: 7.21 µM
GI50 [31]: 1.6 µM
TGI [31]: 3.09 µM
GI50 [32]: 1.99 µM
TGI [32]: 4.02 µM
GI50 [33]: 1.74 µM
TGI [33]: 4.61 µM
GI50 [34]: 0.715 µM
TGI [34]: 3.34 µM
GI50 [35]: 1.01 µM
TGI [35]: 2.77 µM
GI50 [36]: 1.38 µM
TGI [36]: 2.77 µM
GI50 [37]: 1.6 µM
TGI [37]: 2.94 µM
GI50 [38]: 1.89 µM
TGI [38]: 3.59 µM
GI50 [39]: 1.99 µM
TGI [39]: 3.94 µM
GI50 [40]: 1.54 µM
TGI [40]: 2.88 µM
GI50 [41]: 1.77 µM
TGI [41]: 3.84 µM
GI50 [42]: 2.04 µM
TGI [42]: 4.79 µM
GI50 [43]: 2.26 µM
TGI [43]: 5.36 µM
GI50 [44]: 1.21 µM
TGI [44]: 2.65 µM
GI50 [45]: 1.53 µM
TGI [45]: 2.93 µM
GI50 [46]: 1.5 µM
TGI [46]: 4.11 µM
GI50 [47]: 1.31 µM
TGI [47]: 2.61 µM
GI50 [48]: 1.58 µM
TGI [48]: 2.99 µM
GI50 [49]: 1.78 µM
TGI [49]: 3.62 µM
GI50 [50]: 1.78 µM
TGI [50]: 3.33 µM
GI50 [51]: 1.66 µM
TGI [51]: 3.37 µM
